From ChEMBL document CHEMBL2074535, “Differential interactions of cytochalasins with P-glycoprotein” (Oncol Res, 1995)

Assays:
[1] = target: T1, ATP-dependent translocase ABCB1 (Homo sapiens, UniProt P08183); assay: TP_TRANSPORTER: increase in Vinblastine intracellular accumulation (Vinblastine: 0.01-0.02 uM, Cytochalasine E: 10 uM) in MCF-7/ADR cells; type: functional, cell-based; settings: nci/adr-res
[2] = target: T1, ATP-dependent translocase ABCB1; assay: TP_TRANSPORTER: increase in Vinblastine intracellular accumulation (Vinblastine: 0.01-0.02 uM, Dihydrocytochalasin B: 10 uM) in MCF-7/ADR cells; type: functional, cell-based; settings: nci/adr-res
[3] = target: T1, ATP-dependent translocase ABCB1; assay: TP_TRANSPORTER: ATP hydrolysis in membranes from MCF/ADR cells; type: functional, cell membranes, Membrane

T1 sequence (P08183 whole entry): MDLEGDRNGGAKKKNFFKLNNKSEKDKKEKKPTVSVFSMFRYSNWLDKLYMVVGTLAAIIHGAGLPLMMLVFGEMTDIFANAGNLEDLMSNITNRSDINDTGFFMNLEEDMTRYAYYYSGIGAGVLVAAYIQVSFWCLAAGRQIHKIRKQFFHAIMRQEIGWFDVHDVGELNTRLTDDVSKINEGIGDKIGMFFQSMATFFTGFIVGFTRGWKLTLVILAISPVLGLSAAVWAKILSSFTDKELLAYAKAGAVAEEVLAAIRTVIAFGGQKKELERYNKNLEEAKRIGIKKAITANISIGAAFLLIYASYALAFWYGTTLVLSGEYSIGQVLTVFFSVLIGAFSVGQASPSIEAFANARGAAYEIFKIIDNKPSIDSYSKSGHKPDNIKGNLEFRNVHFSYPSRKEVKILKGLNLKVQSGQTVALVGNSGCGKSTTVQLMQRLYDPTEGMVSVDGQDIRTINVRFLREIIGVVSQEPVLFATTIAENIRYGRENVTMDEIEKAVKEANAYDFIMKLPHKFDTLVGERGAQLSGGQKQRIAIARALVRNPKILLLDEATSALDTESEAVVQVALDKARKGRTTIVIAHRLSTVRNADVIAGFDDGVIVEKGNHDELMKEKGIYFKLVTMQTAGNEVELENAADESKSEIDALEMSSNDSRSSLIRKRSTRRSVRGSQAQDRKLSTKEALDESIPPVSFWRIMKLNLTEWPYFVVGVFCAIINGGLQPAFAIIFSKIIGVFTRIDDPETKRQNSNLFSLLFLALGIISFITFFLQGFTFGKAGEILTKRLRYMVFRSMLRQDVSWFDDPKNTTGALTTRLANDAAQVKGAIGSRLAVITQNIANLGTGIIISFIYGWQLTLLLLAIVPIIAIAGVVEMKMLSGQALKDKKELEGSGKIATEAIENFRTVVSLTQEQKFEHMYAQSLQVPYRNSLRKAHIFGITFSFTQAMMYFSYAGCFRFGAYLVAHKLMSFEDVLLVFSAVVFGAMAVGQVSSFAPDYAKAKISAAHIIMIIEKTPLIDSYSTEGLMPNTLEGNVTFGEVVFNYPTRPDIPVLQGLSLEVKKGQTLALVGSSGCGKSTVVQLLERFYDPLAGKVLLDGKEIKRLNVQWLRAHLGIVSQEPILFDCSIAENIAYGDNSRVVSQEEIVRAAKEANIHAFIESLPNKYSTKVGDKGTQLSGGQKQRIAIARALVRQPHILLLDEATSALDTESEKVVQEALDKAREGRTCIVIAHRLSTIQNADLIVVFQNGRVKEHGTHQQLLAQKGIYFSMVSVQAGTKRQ

C[C@H]1C/C=C/[C@H]2[C@@H]3O[C@]3(C)[C@@H](C)[C@H]3[C@H](Cc4ccccc4)NC(=O)[C@]32OC(=O)O/C=C/[C@@](C)(O)C1=O [CYTOCHALASIN E]
Activity [1]: 190%

C=C1[C@@H](C)[C@H]2[C@H](Cc3ccccc3)NC(=O)[C@]23OC(=O)CC[C@H](O)CCC[C@@H](C)C/C=C/[C@H]3[C@@H]1O [DIHYDROCYTOCHALASIN B]
Activity [2]: 257% | Activity [3]: substrate [+]
